According to patent US20080145317A1, “EFFERVESCENT FORMULATIONS OF FLORFENICOL FOR ADDITION IN DRINKING WATER SYSTEMS” (Schering Corporation, priority 2006, published 2008):

How the values were obtained:
[1] = Dissolution test, USP apparatus 2, paddle agitation at 50 rpm, Milli-Q water; format: physicochemical; settings: 25° C., 0.1 mg/mL final
Procedure: The dissolution medium was Milli-Q water maintained at a temperature of 25° C. The effervescent formulations were added directly to the water in the correct amount to achieve a final concentration of 0.1 mg/mL of florfenicol. Aliquots of the resulting solution were withdrawn and analyzed using either UV-VIS spectrophotometry or HPLC, the latter to exclude excipient contribution or degradation of florfenicol. For HPLC analysis, an organic/aqueous mobile phase was used for the separation on a C18, reverse phase column. Detection was performed by UV absorption spectrometry. The percent dissolved was calculated versus an external reference standard prepared at the nominal concentration of the analyte. Pure florfenicol was analyzed as a comparator to assess the effectiveness of the effervescent formulation. Referring now to the tables below, it can be seen that pure florfenicol was only 25% dissolved in 15 minutes and 43% dissolved within 60 minutes. […] Therefore, the effervescent formulation increased the florfenicol rate of dissolution and allowed a complete dissolution within 5 minutes of the addition to water.

[2] = stated in background, no method; cited from earlier work

- % Drug in Solution ([1]; Time 0, pure florfenicol in Milli-Q water): 0%
- % Drug in Solution ([1]; Time 15 (minutes), Milli-Q water): 25%
- % Drug in Solution ([1]; Time 30 (minutes), Milli-Q water): 35%
- % Drug in Solution ([1]; Time 45 (minutes), Milli-Q water): 36%
- % Drug in Solution ([1]; Time 60 (minutes), Milli-Q water): 43%
SMILES: CS(=O)(=O)c1ccc([C@@H](O)[C@@H](CF)NC(=O)C(Cl)Cl)cc1 (relative stereo) [Pure Florfenicol, [R-(R*, S*)]-2,2-Dichloro-N-[1-(fluoromethyl)-2-hydroxy-2-[4-[(methylsulfonyl)phenyl]-ethyl]acetamide]
- water-solubility [2]: 1230 µg/mL
